These results are taken from patent publication US20160257697A1, “THIOPHENE-SUBSTITUTED TETRACYCLIC COMPOUNDS AND METHODS OFUSE THEREOF FOR THE TREATMENT OF VIRAL DISEASES” (priority 2013, published 2016).

Structures are written as SMILES. Read-outs that look alike come from different tables or passages of the source.

Holding throughout (assay): microbe, parasite or virus in culture
Common to all, as to assay type: cell-based, Hepatitis C virus (HCV)
Common to all, as to settings: Replicon Assay A
(Replicon systems follow genome replication, usually without infectious particles.)

One assay relates to HCV replicon 1AY93H. The procedure: (§1) To measure cell-based anti-HCV activity of compounds of the present invention, two complimentary assays were employed using various replicons. In the first assay (“Replicon Assay A”), replicon cells were seeded at 2000 cells/well in 384-well 384-well flat bottom tissue culture treated clear bottom plate (Corning 3707) in the presence of the test compound. […] The final concentration of DMSO was 0.5%. Fetal bovine serum was 5%, in the assay media. Cells were harvested on day 3 by removing media and washing the cells with a suitable wash buffer. The cells are lysed with the addition of 1× Qiagen lysis buffer (Cat #1062731). The replicon RNA level was measured using real time PCR (TaqMan® EZ RT-PCR, Applied Biosystems 403028) with the following primers and probes: […]
(§2) Cyclophilin RNA was used as endogenous control and was amplified in the same reaction as NS5B (multiplex PCR). The real-time RT-PCR reactions were run on ABI PRISM 7900HT Sequence Detection System using the following program: 50° C. for 2 minutes, 60° C. for 30 minutes, 95° C. for 5 minutes, 40 cycles of 94° C. for 20 sec, 55° C. for 1 minutes.
(§3) The amount of HCV replicon RNA per cell is quantified using a linear regression curve for a known nanogram (ng) amount of HCV replicon total RNA. This is established by plotting the Cycle Threshold values (Ct) from the Neo probe and primer set versus the log (ng) for each HCV replicon total RNA standard. The amount of HCV RNA for each replicon sample is calculated by taking the sample's Ct value, minus the line intercept, divided by the slope of the line. Similarly, the amount of Cyclophilin mRNA per cell is also quantified using a linear regression curve for a known nanogram (ng) amount of HCV replicon total RNA. Again, this is established by plotting the Cycle Threshold values (Ct) from the Cyclophilin probe and primer set versus the log (ng) for each HCV replicon total RNA standard.
(§4) Data for replicons 1A, 1AY93H and 2B were obtained using Replicon Assay A and data for replicons 1AQ30D and 1B were obtained using Replicon Assay B.

The subject of the next assay is HCV replicon 1A. The procedure:
as §1, §2, §3, §4

The subject of the next assay is HCV replicon 2B. The procedure:
as §1, §2, §3, §4

[1] abbreviates: read-out: 1A Y93H IC50, replicon 1AY93H.
[2] abbreviates: read-out: 1A Y93H IC50, HCV replicon 1A Y93H.
Setting [3] is: read-out: 2B IC50, HCV replicon 2B.
[4] abbreviates: Hepatitis C virus, read-out: 1A Y93H IC50 (nM), replicon 1AY93H.
Where [5] appears, read: Hepatitis C virus, read-out: 2B IC50 (nM), replicon 2B.

A word on the IC50: it is the point on the concentration scale where inhibition reaches its midpoint. As to `CCc1ccc(C2Oc3cc(-c4cnc([C@@H]5CCCN5C(=O)[C@@H](NC(=O)OC)C(C)C)[nH]4)cc(F)c3-c3cc4cc(-c5cnc([C@@H]6C[C@@H](F)CN6C(=O)C(NC(=O)OC)C6CCOC(C)(C)C6)[nH]5)ccc4n32)s1` (single isomer, unassigned) [Compound 257], the IC50 in the assay on HCV replicon 1AY93H (setting [1]) stood at 9.38 nM; in the assay with HCV replicon 1A (replicon 1A) it was 0.0924 nM.

`COC(=O)N[C@H](C(=O)N1CCC[C@H]1c1ncc(-c2cc(F)c3c(c2)OC(c2csc(C4CC4)c2)n2c-3cc3cc(-c4cnc([C@@H]5CCCN5C(=O)[C@@H](NC(=O)OC)C(C)C)[nH]4)ccc32)[nH]1)C(C)C` (single isomer, unassigned) [Compound 321]: the half-inhibitory concentration (IC50) with HCV replicon 1AY93H (setting [1]) was 5.79 nM; with HCV replicon 1A (Hepatitis C virus, replicon 1A), 0.0013 nM.

For `COC(=O)NC(C(=O)N1CCC[C@H]1c1ncc(-c2ccc3c(c2)cc2n3C(c3cc(C)c(C)s3)Oc3cc(-c4cnc([C@@H]5CCCN5C(=O)[C@@H](NC(=O)OC)C(C)C)[nH]4)cc(F)c3-2)[nH]1)C(C)(C)F` (single isomer, unassigned) [Compound 41], the IC50 with HCV replicon 1AY93H (setting [1]) was found to be 2.45 nM; in the assay with HCV replicon 1A (replicon 1A), 0.002 nM.

On to `COC(=O)NC(C(=O)N1CCC[C@H]1c1ncc(-c2ccc3c(c2)cc2n3C(c3cc(C)c(C)s3)Oc3cc(-c4cnc([C@@H]5CCCN5C(=O)[C@@H](NC(=O)OC)C(C)C)[nH]4)cc(F)c3-2)[nH]1)C(C)(C)F` (single isomer, unassigned) [Compound 42], for which the values for the IC50 in the assay with HCV replicon 1AY93H (setting [1]) and with HCV replicon 1A (replicon 1A) were 42.5 nM and 0.0287 nM, respectively.

For the molecule `COC(=O)NC(C(=O)N1CCC[C@H]1c1ncc(-c2cc(F)c3c(c2)OC(c2ccc(C4CC4)s2)n2c-3cc3cc(-c4cnc([C@@H]5CCCN5C(=O)[C@@H](NC(=O)OC)C(C)C)[nH]4)ccc32)[nH]1)C1C[C@@H](C)O[C@@H](C)C1` (single isomer, unassigned) [Compound 187], the values for the IC50 in the assay with HCV replicon 1AY93H (setting [1]) and in the assay with HCV replicon 1A (replicon 1A) were 14.8 nM and 0.0664 nM, respectively.

`CCc1ccc(C2Oc3cc(-c4cnc([C@@H]5CCCN5C(=O)[C@@H](NC(=O)OC)C(C)C)[nH]4)ccc3-c3c(F)c4cc(-c5cnc([C@@H]6CCCN6C(=O)[C@@H](NC(=O)OC)C(C)C)[nH]5)ccc4n32)s1` (single isomer, unassigned) [Compound 601]: the IC50 in the assay with HCV replicon 1AY93H (setting [2]) is 4 nM; in the assay on HCV replicon 2B (setting [3]), 1.24 nM.

As for `COC(=O)NC(C(=O)N1CCC[C@H]1c1ncc(-c2cc(F)c3c(c2)OC(c2ccc(C4CC4)s2)n2c-3cc3cc(-c4cnc([C@@H]5CCCN5C(=O)[C@@H](NC(=O)OC)C(C)C)[nH]4)ccc32)[nH]1)C1CCOC(C)(C)C1` (single isomer, unassigned) [Compound 213], the results for the IC50 with HCV replicon 1AY93H (setting [1]) and with HCV replicon 1A (replicon 1A) were 13.6 nM and 0.0653 nM, respectively.

On to `CCc1ccc(C2Oc3cc(-c4cnc([C@@H]5CCCN5C(=O)[C@@H](NC(=O)OC)C(C)C)[nH]4)cc(F)c3-c3cc4cc(-c5cnc([C@@H]6C[C@@H](F)CN6C(=O)C(NC(=O)OC)C6CCOC(C)(C)C6)[nH]5)ccc4n32)s1` (single isomer, unassigned) [Compound 256], for which the results for the IC50 in the assay on HCV replicon 1AY93H (setting [1]) and in the assay with HCV replicon 1A (replicon 1A) were 16.9 nM and 0.117 nM, respectively.

Take `COC(=O)N[C@H](C(=O)C1CCC[C@H]1c1ncc(-c2ccc3c(c2)cc2n3C(c3ccc(C(F)(F)F)s3)Oc3cc(-c4cnc([C@@H]5CCCN5C(=O)[C@@H](NC(=O)OC)C(C)C)[nH]4)cc(F)c3-2)[nH]1)C(C)C` (single isomer, unassigned) [Compound 90]: the IC50 is 0.74 nM with HCV replicon 1AY93H (setting [1]) and 1.91 nM with HCV replicon 2B (read-out: 2B IC50, replicon 2B).

On to `COC(=O)N[C@H](C(=O)N1CCC[C@H]1c1ncc(-c2cc(F)c3c(c2)OC(c2cc(C)c(C)s2)n2c-3cc3cc(-c4cnc([C@@H]5C[C@H]6C[C@H]6N5C(=O)[C@@H](NC(=O)OC)C(C)C)[nH]4)ccc32)[nH]1)C(C)C` (single isomer, unassigned) [Compound 507], for which the figures for the IC50 with HCV replicon 1AY93H (setting [2]) and in the assay on HCV replicon 2B (setting [3]) were 0.0896 nM and 1.88 nM, respectively.

As to `COC(=O)N[C@H](C(=O)N1CCC[C@H]1c1ncc(-c2cc(F)c3c(c2)OC(c2ccc(CC4CC4)s2)n2c-3cc3cc(-c4cnc([C@@H]5CCCN5C(=O)[C@@H](NC(=O)OC)C(C)C)[nH]4)ccc32)[nH]1)C(C)C` (single isomer, unassigned) [Compound 53], the IC50 in the assay on HCV replicon 1AY93H (setting [4]) came out at 1.87 nM; in the assay with HCV replicon 2B (setting [5]), 1.95 nM.

As for `COC(=O)NC(C(=O)N1CCC[C@H]1c1ncc(-c2ccc3c(c2)cc2n3C(c3cc(C)c(C)s3)Oc3cc(-c4cnc([C@@H]5CCCN5C(=O)[C@@H](NC(=O)OC)C(C)C)[nH]4)cc(F)c3-2)[nH]1)C(C)(C)F` (single isomer, unassigned) [Compound 40], the results for the 50% inhibitory concentration (IC50) in the assay on HCV replicon 1AY93H (setting [1]) and in the assay on HCV replicon 1A (replicon 1A) were 1.12 nM and 0.002 nM, respectively.

For the molecule `COC(=O)N[C@H](C(=O)N1CCC[C@H]1c1ncc(-c2ccc3c(c2)OC(c2ccc(C4CC4)s2)n2c-3c(F)c3cc(-c4cnc([C@@H]5CCCN5C(=O)[C@@H](NC(=O)OC)C(C)C)[nH]4)ccc32)[nH]1)C(C)C` (single isomer, unassigned) [Compound 605], the IC50 with HCV replicon 1AY93H (setting [2]) amounted to 1.26 nM; in the assay with HCV replicon 1A (HCV replicon 1A), 0.0017 nM.

On to `COC(=O)NC(C(=O)N1CCC[C@H]1c1ncc(-c2cc(F)c3c(c2)OC(c2ccc(C4CC4)s2)n2c-3cc3cc(-c4cnc([C@@H]5C[C@H]6C[C@H]6N5C(=O)[C@@H](NC(=O)OC)C(C)C)[nH]4)ccc32)[nH]1)C(C)(C)F` (single isomer, unassigned) [Compound 100], for which the figures for the IC50 with HCV replicon 1AY93H (setting [1]) and in the assay with HCV replicon 1A (replicon 1A) were 8.26 nM and 0.0242 nM, respectively.

On to `COC(=O)N[C@H](C(=O)N1CCC[C@H]1c1ncc(-c2cc(F)c3c(c2)OC(c2sc(C4CC4)cc2F)n2c-3cc3cc(-c4cnc([C@@H]5CCCN5C(=O)[C@@H](NC(=O)OC)C(C)C)[nH]4)ccc32)[nH]1)C(C)C` (single isomer, unassigned) [Compound 66], for which the IC50 in the assay with HCV replicon 1AY93H (setting [1]) amounted to 0.13 nM; in the assay on HCV replicon 2B (read-out: 2B IC50, replicon 2B), 0.23 nM.

For the molecule `COC(=O)NC(C(=O)N1CCC[C@H]1c1ncc(-c2cc(F)c3c(c2)OC(c2ccc(C4CC4)s2)n2c-3cc3cc(-c4cnc([C@@H]5CCCN5C(=O)[C@@H](NC(=O)OC)C(C)C)[nH]4)ccc32)[nH]1)C(C)(C)F` (single isomer, unassigned) [Compound 68], the IC50 with HCV replicon 1AY93H (setting [1]) turned out to be 0.12 nM; with HCV replicon 2B (read-out: 2B IC50, replicon 2B) it was 1.12 nM.

On to `COC(=O)NC(C(=O)N1[C@@H]2C[C@@H]2C[C@H]1c1ncc(-c2ccc3c(c2)cc2n3C(c3ccc(C4CC4)s3)Oc3cc(-c4cnc([C@@H]5CCCN5C(=O)[C@@H](NC(=O)OC)C(C)C)[nH]4)cc(F)c3-2)[nH]1)C1CCOC(C)(C)C1` (single isomer, unassigned) [Compound 277], for which the half-inhibitory concentration (IC50) in the assay with HCV replicon 1AY93H (setting [1]) amounted to 0.13 nM; in the assay on HCV replicon 2B (read-out: 2B IC50, replicon 2B) it was 0.58 nM.

As for `COC(=O)NC(C(=O)N1CCC[C@H]1c1ncc(-c2cc(F)c3c(c2)OC(c2ccc(C4CC4)s2)n2c-3cc3cc(-c4cnc([C@@H]5C[C@H]6C[C@H]6N5C(=O)[C@@H](NC(=O)OC)C(C)C)[nH]4)ccc32)[nH]1)C(C)(C)F` (single isomer, unassigned) [Compound 99], the half-inhibitory concentration (IC50) was 0.53 nM with HCV replicon 1AY93H (setting [1]) and 1.55 nM with HCV replicon 2B (read-out: 2B IC50, replicon 2B).

As for `COC(=O)NC(C(=O)N1CCC[C@H]1c1ncc(-c2ccc3c(c2)cc2n3C(c3ccc(C(F)F)s3)Oc3cc(-c4cnc([C@@H]5CCCN5C(=O)[C@@H](NC(=O)OC)C(C)C)[nH]4)cc(F)c3-2)[nH]1)C1C[C@@H](C)O[C@@H](C)C1` (single isomer, unassigned) [Compound 265], the half-inhibitory concentration (IC50) in the assay with HCV replicon 1AY93H (setting [1]) was determined as 0.16 nM; in the assay with HCV replicon 2B (read-out: 2B IC50, replicon 2B), 0.25 nM.

On to `COC(=O)N[C@H](C(=O)N1CCC[C@H]1c1ncc(-c2cc(F)c3c(c2)OC(c2ccc(CCC4CC4)s2)n2c-3cc3cc(-c4cnc([C@@H]5CCCN5C(=O)[C@@H](NC(=O)OC)C(C)C)[nH]4)ccc32)[nH]1)C(C)C` (single isomer, unassigned) [Compound 91], for which the IC50 turned out to be 0.28 nM in the assay on HCV replicon 1AY93H (setting [4]) and 3.14 nM with HCV replicon 2B (setting [5]).

Take `COC(=O)N[C@H](C(=O)N1CCC[C@H]1c1ncc(-c2cc(F)c3c(c2)OC(c2cc(C)c(C)s2)n2c-3cc3cc(-c4cnc([C@@H]5C[C@H]6C[C@H]6N5C(=O)[C@@H](NC(=O)OC)C(C)C)[nH]4)ccc32)[nH]1)C(C)C` (single isomer, unassigned) [Compound 509]: the IC50 in the assay on HCV replicon 1AY93H (setting [2]) is 6.12 nM; in the assay on HCV replicon 2B (setting [3]), 6.82 nM.

For the molecule `COC(=O)N[C@H](C(=O)N1CCC[C@H]1c1ncc(-c2cc(F)c3c(c2)OC(c2scc4c2OCCO4)n2c-3cc3cc(-c4cnc([C@@H]5CCCN5C(=O)[C@@H](NC(=O)OC)C(C)C)[nH]4)ccc32)[nH]1)C(C)C` (single isomer, unassigned) [Compound 525], the results for the IC50 in the assay on HCV replicon 1AY93H (setting [2]) and with HCV replicon 2B (setting [3]) were 15.1 nM and 3.14 nM, respectively.
